Measurements as given in patent publication US5445951A, “Regioselective enzymatic deacylation of sucrose esters in anhydrous organic media” (priority 1993, dated 1995).
Read-outs that look alike come from different tables or passages of the source.

Experiments:
lipase AY 30 [1] = experiment: Effect of the solvent on lipase AY 30 SOA deacetylation; type: biochemical, Candida cylindracea; conditions: lipase AY 30, solvent as labelled, 24 hrs
Method: (§1) Identical enzyme catalyzed SOA deacetylations were run in numerous anhydrous solvents. After 24 hrs incubation an aliquot was analyzed by HPLC.
(§2) Enzyme and Solvent Screening for SOA Deacetylation. A scintillation vial was charged successively with 100 mg of powdered enzyme as received or prepared as described and 1.0 ml of 20 mM sucrose octaacetate (SOA) dissolved in an organic solvent. Following a 5 sec sonication, the vial was incubated in a controlled-temperature shaker at 45° C. and 300 RPM for 24 hrs. A 200 μl aliquot of the reaction mixture was withdrawn and centrifuged. The supernatant was collected and evaporated under a stream of N2. The residue was reconstituted in 200 μl of acetonitrile and 10 μl of this solution was analyzed by HPLC.

[2] = n-octanol/water, cited from earlier work
proleather = experiment: Solvent effect on proleather catalyzed deacetylation of SOA; type: biochemical, Bacillus subtilis; conditions: 24 hrs; for SheptaA: total of 1'-OH and 6'-OH heptaacetates; for ShexaA / SOA: solvent as labelled
Method: as §1
(§3) The pH of commercial powdered enzymes was adjusted in the following way: The enzyme (3 g) was dissolved in 25 ml of an appropriate buffer and the pH adjusted with dilute NaOH or citric/phosphoric acid solution. Cold acetone (37.5 ml at -20° C.) was added and the precipitate collected on a medium porosity glass funnel and dried overnight at 2 millitorr. The protein pellet was ground to a fine powder and equilibrated at 4° C. over saturated aqueous potassium carbonate (RH: 43%) for 24 hrs.
as §2

[3] = test system: alcalase deposited on Hyflo Super Cell; experiment: Solvent effect on alcalase deposited on Hyflo Super Cell catalyzed deacetylation of SOA; type: biochemical, Bacillus licheniformis; conditions: immobilized alcalase, 4 hour incubation; for SheptaA: total of 1'-OH and 6'-OH heptaacetates
Method: (§4) Alcalase and lipase AY 30 were deposited on Hyflo Super Cell and used as catalysts for SOA deacetylation reactions in several anhydrous solvents.
(§5) Enzyme immobilization. The pH of a solution of 900 mg of buffered alcalase in 18 ml of water was adjusted to 9.0 with dilute NaOH. Hyflo super cell (6 g) was added and the slurry thoroughly mixed. […] Lipase AY 30 was immobilized in the same manner except that the protein solution was adjusted to pH 7.0 with sodium phosphate.
as §2, with “Following a 5 sec sonication, the vial was incubated in a controlled-temperature shaker at 45° C. and 300 RPM for 24 hrs.” left out

lipase AY 30 [4] = experiment: Effect of the solvent on lipase AY 30 catalyzed deacylation of SOP; type: biochemical, Candida cylindracea; conditions: for ShexaP (4.2 min) / SheptaP's (8.9 min) / SheptaP's (9.4 min) / SheptaP's ([…]): lipase AY 30, 24 hrs; for ShexaP (4.2 min): HPLC peak 4.2 min; for SheptaP's (8.9 min): HPLC peak 8.9 min; for SheptaP's (9.4 min): HPLC peak 9.4 min; for SheptaP's ([…]): HPLC peak […]; for SOA: lipase AY 30, solvent as labelled, 200 mM butanol, 24 hrs, peak 21.4 min; as to SheptaP's ([…]): HPLC peak 8.2 min
Method: Identical SOP deacylations were performed with lipase AY 30 or protease type XXIII in numerous anhydrous organic solvents, as shown in Tables 12 and 13.
as §2, with “Solvent” for “Enzyme and Solvent”, “screening” for “Screening”, “SOP deacylation.” for “SOA Deacetylation.”, “lipase AY 30” for “powdered enzyme as received”, “protease type XXIII” for “prepared”, “octapropionate (SOP) and 200mM butanol” for “octaacetate (SOA)”

[5] = test system: lipase AY 30 deposited on Hyflo Super Cell; experiment: Solvent effect on lipase AY 30 deposited on Hyflo Super Cell catalyzed deacetylation of SOA; type: biochemical, Candida cylindracea; conditions: immobilized lipase AY 30, 24 hrs
Method: as §4, §5, §2

alcalase = molecular target: T1, alcalase (Bacillus licheniformis, UniProt P00780); experiment: Solvent effect on alcalase catalyzed deacetylation of SOA; type: biochemical; conditions: 24 hrs; for SheptaA: total of 1'-OH and 6'-OH heptaacetates; for SOA / ShexaA: solvent as labelled
T1 construct: purchased Novo Nordisk (gift)
T1 sequence (P00780 106-379): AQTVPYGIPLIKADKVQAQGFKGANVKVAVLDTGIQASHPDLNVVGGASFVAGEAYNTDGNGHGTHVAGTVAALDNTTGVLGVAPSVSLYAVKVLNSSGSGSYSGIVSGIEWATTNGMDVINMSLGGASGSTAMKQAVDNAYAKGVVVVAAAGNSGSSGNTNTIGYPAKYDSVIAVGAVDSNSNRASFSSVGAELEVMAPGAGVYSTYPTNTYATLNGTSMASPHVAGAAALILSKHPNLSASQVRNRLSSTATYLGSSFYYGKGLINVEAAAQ
Method: as §1
Enzyme Precipitation. Alcalase was prepared by adding 37.5 ml cold acetone (-20° C.) to 25 ml of alcalase solution as supplied by Novo. The aqueous acetone was decanted and the residue dissolved in 25 ml of pH 9.0 glycine--NaOH buffer. The pH of this solution was adjusted to 9.0 with a few drops of dilute NaOH solution. Cold acetone (37.5 ml at -20° C.) was added to the buffered alcalase solution and the precipitate collected by filtration on a medium porosity glass funnel and dried overnight at 2 millitorr. The resulting pellet was ground to a fine powder and stored at 4° C. over saturated aqueous potassium carbonate (RH: 43%) for 24 hrs.
as §2

lipase AP 12 = experiment: Solvent effect on lipase AP 12 catalyzed deacetylation of SOA; type: biochemical, Aspergillus niger; conditions: lipase AP 12, solvent as labelled, 24 hrs
Method: as §1, §3, §2

SMILES | SOA (lipase AY 30 [1]) | SheptaA (lipase AY 30 [1]) | ShexaA (lipase AY 30 [1]) | log P ([2]; from Laane et al.) | SheptaA (proleather) | ShexaA (proleather) | SOA [3] | ShexaA [3] | SheptaA [3] | ShexaP (4.2 min) (lipase AY 30 [4]) | SheptaP's (8.9 min) (lipase AY 30 [4]) | SheptaP's (9.4 min) (lipase AY 30 [4]) | SheptaP's ([…]) (lipase AY 30 [4]) | SOA (lipase AY 30 [4]) | SOA [5] | SheptaA [5] | SheptaA (alcalase) | SOA (alcalase) | ShexaA (alcalase) | further results
CCC(C)(C)OC [t-amyl methyl ether] | 45% | 37.1% | 17.9% | 1.9 |  |  |  |  |  |  |  |  |  |  |  |  |  |  |  | 
CCOC(C)(C)C [t-butyl ethyl ether] | 40.8% | 38.1% | 21.1% | 1.9 | 2.8% | 0% |  |  |  |  |  |  |  |  |  |  |  |  |  | 
CC(=O)OC(C)(C)C [t-butyl acetate] |  |  |  | 1.7 |  |  | 98.2% | 0% | 1.8% |  |  |  |  |  |  |  |  |  |  | 
CCCCCCCC [octane] |  |  |  | 5.0 |  |  |  |  |  | 7.7% | 0.5% | 2.9% | 8.9% | 80.0% |  |  |  |  |  | 
CCCCCCC [heptane] |  |  |  | 4.0 |  |  |  |  |  | 6.6% | 0.5% | 4.4% | 8.9% | 79.6% |  |  |  |  |  | 
COC(C)(C)C [t-butyl methyl ether] | 61.6% | 28.8% | 9.6% | 1.3 | 24.4% | 3.2% | 97.3% | 0% | 2.7% | 0.8% | 0.3% | 5.9% | 4.3% | 88.7% | 96.0% | 4.0% | 6.8% | 92.6% | 0.6% | SOA (proleather): 72.4%
c1ccccc1 [benzene] | 97.9% | 1.7% | 0.4% |  | 13.9% | 1.4% | 97.9% | 0% | 2.1% |  |  |  |  |  | 97.9% | 2.1% | 6.7% | 93.3% | 0% | SOA (proleather): 84.8%; SOA (lipase AP 12): 96.6%; SheptaA (lipase AP 12): 3.4%; ShexaA (lipase AP 12): 0%
CCCCCCCCO [octanol] |  |  |  |  |  |  |  |  |  | 0% | 0% | 1.1% | 1.8% | 97.1% |  |  |  |  |  | log P [2]: 3.0
Cc1ccccc1 [toluene] | 78.7% | 16.5% | 4.8% |  | 15.2% | 2.0% | 97.8% | 0% | 2.2% | 0.2% | 0% | 1.2% | 1.3% | 97.3% | 94.5% | 5.5% | 6.0% | 93.8% | 0.2% | SOA (proleather): 82.8%; SOA (lipase AP 12): 94.2%; SheptaA (lipase AP 12): 5.8%; ShexaA (lipase AP 12): 0%
CCCCCOCCCCC [dipentyl ether] |  |  |  | 3.9 |  |  |  |  |  |  |  |  |  |  |  |  |  |  |  | 
ClC(Cl)Cl [chloroform] | 86.7% | 11.6% | 1.7% |  |  |  |  |  |  |  |  |  |  |  |  |  |  |  |  | 
CCCCCC [hexane] |  |  |  | 3.5 |  |  |  |  |  | 5.8% | 0.6% | 5.7% | 8.6% | 79.3% |  |  |  |  |  | 
C1CCCCC1 [cyclohexane] |  |  |  |  |  |  |  |  |  | 2.8% | 0.4% | 5.2% | 5.6% | 86% |  |  |  |  |  | 
O=C1CCCCC1 [cyclohexanone] | 97.5% | 2.5% | 0% | 0.96 |  |  |  |  |  | 0% | 0% | 0.3% | 0.9% | 98.8% |  |  |  |  |  | 
CCCCCCCO [heptanol] | 93.4% | 6.0% | 0.6% | 2.5 |  |  |  |  |  | 0% | 0% | 0.7% | 1.4% | 97.9% |  |  |  |  |  | 
C1CCOC1 [THF, tetrahydrofuran] | 98.7% | 1.3% | 0% |  | 2.6% | 0% | 97.3% | 0% | 2.7% | 0.3% | 0% | 0.1% | 1.6% | 98.0% | 98. % | 2.0% | 2.0% | 98.0% | 0% | SOA (proleather): 97.4%; SOA (lipase AP 12): 98.4%; SheptaA (lipase AP 12): 1.6%; ShexaA (lipase AP 12): 0%
CCCCC(=O)CC [3-heptanone] | 85.1% | 14.9% |  | 1.8 |  |  |  |  |  | 0% | 0.8% | 2.9% | 3.3% | 93.0% |  |  |  |  |  | 
CCCCOC(C)=O [n-butyl acetate] | 95.2% | 4.6% | 0.4% | 1.7 | 16.5% | 2.2% |  |  |  | 0% | 0% | 0.7% | 1.4% | 97.9% | 97.6% | 2.4% | 2.4% | 97.6% | 0% | SOA (proleather): 81.3%; SOA (lipase AP 12): 97.6%; SheptaA (lipase AP 12): 2.4%; ShexaA (lipase AP 12): 0%
CCCCOCC [butyl ethyl ether] | 73.9% | 21.4% | 4.7% | 1.9 |  |  | 97.8% | 0% | 2.2% |  |  |  |  |  | 96.0% | 4.0% | 16.9% | 81.4% | 1.7% | SOA (lipase AP 12): 81.6%; SheptaA (lipase AP 12): 16.3%; ShexaA (lipase AP 12): 2.1%
